Experiments:
[1] = target: T1, AADC (Sus scrofa, UniProt P80041); assay: In vitro AADC inhibition: time of 90% inactivation (14CO2 trapping, DL-[1-14C]-dopa substrate); assay type: biochemical, hog; design: key to RATING: ++++: The relative activities of the compounds are rated by the given number of "plus" signs; +++: The relative activities of the compounds are rated by the given number of "plus" signs; 0-+: The relative activities of the compounds are rated by the given number of "plus" signs; settings: CONC. 100 μM; for TIME OF 90% INACTIVATION: pH 7.4, 37° C.; for RATING: relative activity
T1 sequence (P80041 1-486): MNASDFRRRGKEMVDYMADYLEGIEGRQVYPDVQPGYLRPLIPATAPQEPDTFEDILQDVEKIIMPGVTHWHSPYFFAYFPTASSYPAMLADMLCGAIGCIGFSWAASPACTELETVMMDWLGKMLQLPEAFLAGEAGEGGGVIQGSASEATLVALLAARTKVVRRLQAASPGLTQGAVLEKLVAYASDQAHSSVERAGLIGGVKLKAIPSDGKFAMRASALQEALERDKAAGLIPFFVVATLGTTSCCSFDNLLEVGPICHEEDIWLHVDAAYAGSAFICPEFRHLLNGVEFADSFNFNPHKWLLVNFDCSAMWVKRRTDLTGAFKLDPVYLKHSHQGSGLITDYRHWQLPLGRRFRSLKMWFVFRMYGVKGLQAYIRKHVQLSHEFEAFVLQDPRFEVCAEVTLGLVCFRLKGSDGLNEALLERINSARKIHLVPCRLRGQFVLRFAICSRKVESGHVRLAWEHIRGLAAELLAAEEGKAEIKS
Description: AADC can be purified from hog kidney by the general method of J. Christenson et al. Archs. Biochem. Biophys., 141, 356 (1970) and G. Lancaster et al., Can. J. Biochem., 50, 791 (1972), and the specific activity of the enzyme is determined by the ^14 CO2 trapping method using DL-[1-^14 C]-dopa as the substrate (see Christenson et al.). One unit of activity is defined as the total amount of enzyme which produces 1 n mol of CO2 per minute, with DL-[1-^14 C]-dopa as substrate.
To 100 μl of 50 mM-phosphate buffer pH 7.4 containing 100 mM-mercapto-ethanol are added 5 μl of an aqueous solution containing the test compound at the desired concentration and 50 μl of an aqueous solution containing 2 units of AADC. The mixture is incubated at 37° C. and 20 μl aliquots are removed at various times. The AADC activity remaining in each aliquot is measured by the CO2 trapping method of Christenson.
The relative activities of the compounds are rated by the given number of "plus" signs.

[2] = tested on: AADC; assay: Ex vivo AADC activity in organs of mice after repeated i.p. doses (Table II); design: species or system mice (Swiss Albino); settings: three days, 12 h after 6th dose, vs control
Description: (§1) The test animals (e.g. mice or rats) are given the test compound in a suitable vehicle, either orally or by injection, each day over the period of time desired. The animals are kept on a constant time cycle, and body weights are measured daily. The animals are sacrificed by decapitation 12 to 24 hours after receiving the last dose of the test compound. Control animals receive the vehicle alone.
(§2) Immediately after death, the organs (brain, heart, and kidney) are removed and homogenized either in 50 ml phosphate buffer pH 6.8 for AADC determination or in ice-cold 0.4 M HClO4 containing 0.05% (w/v) EDTA and 0.1% (w/v) sodium bisulfite for catecholamine determination. AADC activity is determined by the ^14 CO2 trapping method of J. Christenson, supra (see Example 14) using DL-[1-^14 C]-dopa as the substrate. Catecholamines are determined by centrifuging the homogenate, adding the supernatant to alumina buffered to pH 8.0-8.4 to adsorb the catecholamines, re-extracting the catecholamines from the alumina with 0.2 M HClO4 and determining the catecholamines in the extracts using known procedures, such as by reversed-phase ion-pair HPLC with electrochemical detection.
(§3) Table II, shown below, sets forth the results obtained by testing particular compounds of Formula I in the above-described procedure in mice (Swiss Albino) after i.p. administration of the compound twice daily for three days: […]

[3] = tested on: catecholamine content (norepinephrine, dopamine); assay: Catecholamine content in organs of mice after repeated i.p. doses (Table II); assay type: in vivo, mice (Swiss Albino); settings: three days, 12 h after 6th dose, vs control
Description: as §1, §2, §3

[4] = Deaths in mice after repeated i.p. doses (Table II footnotes); assay type: in vivo, mice (Swiss Albino); settings: 100 mg/kg i.p. twice daily, three days; number dead of animals
Description: as §1, §3

[5] = tested on: AADC; assay: Ex vivo AADC activity in brain of rats after repeated i.p. doses (Table II, footnote c); settings: 100 mg/kg i.p. twice daily, three days, 12 h after 6th dose, vs control
Description: as §1, §2, §3

[6] = tested on: catecholamine content (norepinephrine, dopamine); assay: Catecholamine content in organs of rats after repeated i.p. doses (Table II, footnote c); assay type: in vivo; settings: 100 mg/kg i.p. twice daily, three days, 12 h after 6th dose, vs control
Description: as §1, §2, §3

[7] = tested on: endogenous catecholamine and 5-HT levels; assay: Effect on endogenous catecholamine and 5-HT levels in brain and heart (general statement); assay type: in vivo

Structure (SMILES)	TIME OF 90% INACTIVATION [1] [min]	RATING [1]	% CHANGE AADC Brain ([2]; 10 mg/kg i.p. twice daily) [%]	% CHANGE AADC Kidney ([2]; 10 mg/kg i.p. twice daily) [%]	% CHANGE AADC Brain ([2]; 100 mg/kg i.p. twice daily) [%]	% CHANGE AADC Kidney ([2]; 100 mg/kg i.p. twice daily) [%]	% CHANGE NOREPINEPHRINE Brain ([3]; 10 mg/kg i.p. twice daily, * not significant) [%]	% CHANGE NOREPINEPHRINE Heart ([3]; 10 mg/kg i.p. twice daily, * not significant (-25*, -7*)) [%]	% CHANGE DOPAMINE Brain ([3]; 10 mg/kg i.p. twice daily, * not significant (-25*, -9*)) [%]	% CHANGE NOREPINEPHRINE Brain ([3]; 100 mg/kg i.p. twice daily) [%]	% CHANGE NOREPINEPHRINE Heart ([3]; 100 mg/kg i.p. twice daily) [%]	% CHANGE DOPAMINE Brain ([3]; 100 mg/kg i.p. twice daily, * not significant (-35*)) [%]	dead [4]	% CHANGE AADC Brain [5] [%]	% CHANGE DOPAMINE Brain [6] [%]	% CHANGE NOREPINEPHRINE Brain [6] [%]	% CHANGE NOREPINEPHRINE Heart [6] [%]	selectivity (brain catecholamines lowered, not heart, not brain 5-HT) [7]
Cc1ccc(CC(N)(CF)C(=O)O)c(O)c1 (centres unmarked) [2-OH4-methyl phenyl, 2-amino-2-fluoromethyl-3-(2-hydroxy-4-methylphenyl)propionic acid]	1	+++	-39	-70	-99	-99.5	0	-7	-9	-69	-75	-35	2/5					
NC(CF)(Cc1ccc(O)cc1)C(=O)O (centres unmarked) [Example 4-OH-phenyl, 2-Amino-2-fluoromethyl-3-(4-hydroxyphenyl)propionic acid]	> 300	0-+												-88	-88	-54	-45	not found

Reference: patent US4342780A, “Method of depleting endogenous monoamines” (Merrell-Toraude et Cie, priority 1981, dated 1982)
